# pIC50: −log10 of the molar value.
# Target: T1, MAGL (Homo sapiens, UniProt Q99685)
# T1 sequence (Q99685 1-303): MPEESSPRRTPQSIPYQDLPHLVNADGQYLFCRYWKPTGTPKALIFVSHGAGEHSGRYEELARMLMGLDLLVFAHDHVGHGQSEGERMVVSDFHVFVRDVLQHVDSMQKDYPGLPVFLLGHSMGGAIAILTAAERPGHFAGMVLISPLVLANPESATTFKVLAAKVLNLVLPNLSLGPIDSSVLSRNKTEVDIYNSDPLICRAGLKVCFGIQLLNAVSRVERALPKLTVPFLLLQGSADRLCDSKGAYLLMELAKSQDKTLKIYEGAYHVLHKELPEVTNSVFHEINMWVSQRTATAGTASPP
# Assay: 2-AG assay: MAGL inhibitory activity by hydrolysis of 2-arachidonoylglycerol to arachidonic acid, mass spectrometry
# Format: biochemical
# Settings: 2-AG assay (values marked [a])
# Description: Alternatively, compounds were profiled for MAGL inhibitory activity by determining the enzymatic activity by following the hydrolysis of the natural substrate, 2-arachidonoylglycerol, resulting in arachidonic acid, which can be followed by mass spectrometry. This assay is hereinafter abbreviated “2-AG assay”.
# The 2-AG assay was carried out in 384 well assay plates (PP, Greiner Cat #784201) in a total volume of 20 μL. Compound dilutions were made in 100% DMSO (VWR Chemicals 23500.297) in a polypropylene plate in 3-fold dilution steps to give a final concentration range in the assay from 12.5 μM to […]. 0.25 μL compound dilutions (100% DMSO) were added to 9 μL MAGL in assay buffer (50 mM TRIS (GIBCO, 15567-027), 1 mM EDTA (Fluka, 03690-100 ml), 0.01% (v/v) Tween. After shaking, the plate was incubated for 15 min at RT. To start the reaction, 10 μL 2-arachidonoylglycerol in assay buffer was added. The final concentrations in the assay was […] and 8 μM 2-arachidonoylglyerol. After shaking and 30 min incubation at RT, the reaction was quenched by the addition of 40 μL of acetonitrile containing 4 μM of d8-arachidonic acid. The amount of arachidonic acid was traced by an online SPE system (Agilent Rapidfire) coupled to a triple quadrupole mass spectrometer (Agilent 6460). A C18 SPE cartridge (G9205A) was used in an acetonitrile/water liquid setup. The mass spectrometer was operated in negative electrospray mode following the mass transitions 303.1→259.1 for arachidonic acid and 311.1→267.0 for d8-arachidonic acid. The activity of the compounds was calculated based on the ratio of intensities [arachidonic acid/d8-arachidonic acid].
row,pIC50,Compound
1,9.57,"CS(=O)(=O)c1ccc(C(c2ccccc2)C2CCN(C(=O)c3ccc4c(c3)NC(=O)CO4)CC2)cc1 (single isomer, unassigned) [Example 132, 6-[4-[(S or R)-(4-Methylsulfonylphenyl)-phenyl-methyl]piperidine-1-carbonyl]-4H-1,4-benzoxazin-3-one]"
2,9.21,"Cn1cc(C(c2ccccc2)C2CCN(C(=O)c3ccc4c(c3)NC(=O)CO4)CC2)cn1 (single isomer, unassigned) [Example 140, 6-[4-[(S or R)-(1-Methylpyrazol-4-yl)-phenyl-methyl]piperidine-1-carbonyl]-4H-1,4-benzoxazin-3-one]"
3,9.62,"COc1cc(C(c2ccccc2)C2CCN(C(=O)c3ccc4c(c3)NC(=O)CO4)CC2)ccn1 (single isomer, unassigned) [Example 137, 6-[4-[(R or S)-(2-Methoxy-4-pyridyl)-phenyl-methyl]piperidine-1-carbonyl]-4H-1,4-benzoxazin-3-one]"
4,9.96,"COc1ccc(C(c2ccccc2)C2CCN(C(=O)c3ccc4c(c3)NC(=O)CO4)CC2)cc1OCCF (single isomer, unassigned) [Example 134, 6-[4-[(S or R)-3-(2-Fluoroethoxy)-4-methoxy-phenyl-phenyl-methyl]piperidine-1-carbonyl]-4H-1,4-benzoxazin-3-one]"
5,7.60,"CS(=O)(=O)c1ccc(C(c2ccccc2)C2CCN(C(=O)c3ccc4c(c3)NC(=O)CO4)CC2)cc1 (single isomer, unassigned) [Example 133, 6-[4-[(R or S)-(4-Methylsulfonylphenyl)-phenyl-methyl]piperidine-1-carbonyl]-4H-1,4-benzoxazin-3-one]"
6,8.38,"COc1ccc(C(c2ccccc2)C2CCN(C(=O)c3ccc4c(c3)NC(=O)CO4)CC2)cc1OCCF (single isomer, unassigned) [Example 135, 6-[4-[(R or S)-[3-(2-Fluoroethoxy)-4-methoxy-phenyl]-phenyl-methyl]piperidine-1-carbonyl]-4H-1,4-benzoxazin-3-one]"
7,9.77,"COc1cc(C(c2ccccc2)C2CCN(C(=O)c3ccc4c(c3)NC(=O)CO4)CC2)ccc1OCCF (single isomer, unassigned) [Example 139, 6-[4-[(R or S)-[4-(2-Fluoroethoxy)-3-methoxy-phenyl]-phenyl-methyl]piperidine-1-carbonyl]-4H-1,4-benzoxazin-3-one]"
8,8.18,"Cn1cc(C(c2ccccc2)C2CCN(C(=O)c3ccc4c(c3)NC(=O)CO4)CC2)cn1 (single isomer, unassigned) [Example 141, 6-[4-[(R or S)-(1-Methylpyrazol-4-yl)-phenyl-methyl]piperidine-1-carbonyl]-4H-1,4-benzoxazin-3-one]"
9,8.03,"COc1cc(C(c2ccccc2)C2CCN(C(=O)c3ccc4c(c3)NC(=O)CO4)CC2)ccc1OCCF (single isomer, unassigned) [Example 138, 6-[4-[(S or R)-[4-(2-Fluoroethoxy)-3-methoxy-phenyl]-phenyl-methyl]piperidine-1-carbonyl]-4H-1,4-benzoxazin-3-one]"

# Target: T2, MAGL (recombinant wild-type) (Homo sapiens, UniProt Q99685)
# T2 sequence (Q99685 1-303): T1 sequence (Q99685 1-303)
# Assay: 4-NPA assay: MAGL inhibitory activity by hydrolysis of 4-nitrophenylacetate, absorbance at 405 nm
# Format: biochemical
# Settings: 4-NPA assay (values without footnote [a])
# Method in brief: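 Compound (final 25 μM to 1.7 nM, 3-fold steps) was preincubated 15 min at RT with 1 nM MAGL in 50 mM Tris, 1 mM EDTA, then 300 μM 4-nitrophenylacetate was added. A405 was read after 5 min and again 80 min later at RT, and activity was taken as the difference between the two reads.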
row,pIC50,Compound
1,7.54,"Cn1cc(C2CCN(C(=O)c3ccc4c(c3)NC(=O)CO4)CC2)c2ccccc21 [Example 31, 6-[4-(1-methylindol-3-yl)piperidine-1-carbonyl]-4H-1,4-benzoxazin-3-one]"
2,9.00,"Cn1cc(C2CCN(C(=O)c3cc4c(cc3F)OCC(=O)N4)CC2)c2cc(Cl)ccc21 [Example 28, 6-[4-(5-chloro-1-methylindol-3-yl)piperidine-1-carbonyl]-7-fluoro-4H-1,4-benzoxazin-3-one]"
3,8.23,"O=C1COc2ccc(C(=O)N3CCN(C(c4ccc(F)cc4)c4ccc(F)cc4)CC3)cc2N1 [Example 84, 6-[4-[bis(4-fluorophenyl)methyl]piperazine-1-carbonyl]-4H-1,4-benzoxazin-3-one]"
4,9.40,"COc1cccc([C@H](c2ccccc2)C2CCN(C(=O)c3ccc4c(c3)NC(=O)CO4)CC2)c1 (single isomer, unassigned) [Example 12]"
5,8.85,"O=C1COc2ccc(C(=O)N3CCC([C@@H](c4ccc(F)cc4)c4cccc(OCCOCCF)c4)CC3)cc2N1 (single isomer, unassigned) [Example 95, 6-[4-[(R or S)-[3-[2-(2-fluoroethoxy)ethoxy]phenyl]-(4-fluorophenyl)methyl]piperidine-1-carbonyl]-4H-1,4-benzoxazin-3-one]"
6,8.21,"O=C1CCc2c(cc(C(=O)N3CCC(C(c4ccccc4)c4ccccc4)CC3)cc2OCCF)N1 [Example 109, 7-(4-Benzhydrylpiperidine-1-carbonyl)-5-(2-fluoroethoxy)-3,4-dihydro-1H-quinolin-2-one]"
7,9.22,"COc1cccc(C(c2ccc(F)cc2)C2CCN(C(=O)c3ccc4c(c3)NC(=O)CO4)CC2)c1 (single isomer, unassigned) [Example 120, 6-[4-[(R or S)-(4-Fluorophenyl)-(3-methoxyphenyl)methyl]piperidine-1-carbonyl]-4H-1,4-benzoxazin-3-one]"
8,8.44,"COc1ccc(C(c2cccnc2)C2CCN(C(=O)c3ccc4c(c3)NC(=O)CO4)CC2)cc1OC (single isomer, unassigned) [Example 122, 6-[4-[(R or S)-(3,4-Dimethoxyphenyl)-(3-pyridyl)methyl]piperidine-1-carbonyl]-4H-1,4-benzoxazin-3-one]"
9,9.52,"O=C1COc2ccc(C(=O)N3CCC([C@@H](c4ccccc4)c4ccc(OCCF)cc4)CC3)cc2N1 [Example 80, 6-[4-[(S)-[4-(2-fluoroethoxy)phenyl]-phenyl-methyl]piperidine-1-carbonyl]-4H-1,4-benzoxazin-3-one]"
10,5.62,"O=C1COc2ccc(C(=O)N3CCN(c4nsc5ccccc45)CC3)cc2N1 [Example 91, 6-[4-(1,2-benzothiazol-3-yl)piperazine-1-carbonyl]-4H-1,4-benzoxazin-3-one]"
11,5.83,"O=C1COc2ccc(C(=O)N3CCN(c4cc(C(F)(F)F)ccn4)CC3)cc2N1 [Example 88, 6-[4-[4-(trifluoromethyl)-2-pyridyl]piperazine-1-carbonyl]-4H-1,4-benzoxazin-3-one]"
12,8.85,"O=C1COc2ccc(C(=O)N3CCC(C(c4ccc(F)cc4)c4ccc(F)nc4)CC3)cc2N1 (single isomer, unassigned) [Example 115, 6-[4-[(R or S)-(4-Fluorophenyl)-(6-fluoro-3-pyridyl)methyl]piperidine-1-carbonyl]-4H-1,4-benzoxazin-3-one]"
13,6.46,"O=C1COc2ccc(C(=O)N3CCC(c4nn(CCO)c5cc(F)ccc45)CC3)cc2N1 [Example 37, 6-[4-[6-fluoro-1-(2-hydroxyethyl)indazol-3-yl]piperidine-1-carbonyl]-4H-1,4-benzoxazin-3-one]"
14,9.30,"Cc1ccc([C@H](c2ccccc2)C2CCN(C(=O)c3ccc4c(c3)NC(=O)CO4)CC2)cc1 (single isomer, unassigned) [Example 14]"
15,9.05,"O=C1COc2ccc(C(=O)N3CCC([C@H](c4ccccc4)c4ccc(F)cc4)CC3)cc2N1 (single isomer, unassigned) [Example 7]"
16,8.21,"O=C1COc2ccc(C(=O)N3CCC(C(c4ccc(F)cc4)c4ccnc(F)c4)CC3)cc2N1 (single isomer, unassigned) [Example 110, 6-[4-[(S or R)-(4-Fluorophenyl)-(2-fluoro-4-pyridyl)methyl]piperidine-1-carbonyl]-4H-1,4-benzoxazin-3-one]"
17,7.07,"CC(C)n1nc(C2CCN(C(=O)c3ccc4c(c3)NC(=O)CO4)CC2)c2ccc(F)cc21 [Example 38, 6-[4-(6-fluoro-1-propan-2-ylindazol-3-yl)piperidine-1-carbonyl]-4H-1,4-benzoxazin-3-one]"
18,7.54,"O=C1COc2ccc(C(=O)N3CCC(c4c[nH]c5cc(C(F)(F)F)ccc45)CC3)cc2N1 [Example 25, 6-[4-[6-(trifluoromethyl)-1H-indol-3-yl]piperidine-1-carbonyl]-4H-1,4-benzoxazin-3-one]"
19,9.28,"O=C1COc2ccc(C(=O)N3CCC([C@H](c4ccc(F)cc4)c4cccc(OCCF)c4)CC3)cc2N1 [Example 76, 6-[4-[(R)-[3-(2-fluoroethoxy)phenyl]-(4-fluorophenyl)methyl]piperidine-1-carbonyl]-4H-1,4-benzoxazin-3-one]"

# — US11420961B2, “Heterocyclic compounds” (Hoffmann-La Roche Inc., priority 2017, dated 2022)
